Each molecule was assayed against T1, BTK (Homo sapiens, UniProt Q06187) (assay: BTK degradation assay using the HiBiT Method (Nano-Glo HiBiT Lytic Assay, GM01501.3 cells)). Details: HiBiT Degradation on GM01501.3 BTK @ 6 hours.
T1 construct: The GM01501.3 cell line endogenously expresses BTK with a HiBiT fusion tag via CRISPR knock-in at its C-terminal region; endogenous in cells; host or cells: GM01501.3 (GM01501 cells engineered by CRISPR knock-in of HiBiT at the BTK locus)
Type: cell-based
Protocol: Selected compounds were tested in a BTK degradation assay using the HiBiT Method. Park Memorial Institute (RPM1) 1640 Medium with phenol red, L-Glutamine, Sodium Pyruvate, and fetal bovine serum (FBS) were purchased from Gibco (Grand Island, NY, USA). Nano-Glo® HiBiT Lytic Assay System was purchased from Promega (Madison, WI, USA). GM01501 cells were obtained from the NIGMS Human Genetic Cell Repository at the Coriell Institute for Medical Research. The GM01501.3 cell line endogenously expresses BTK with a HiBiT fusion tag via CRISPR knock-in at its C-terminal region. It was engineered by electroporation with the Neon Transfection System (Themo Fisher Scientific), according to manufacturer indications. Electroporation conditions: 1 pulse of 1,350 V for 30 ms for 0.5×10_6 cells. Cell culture flasks and 384-well microplates were acquired from VWR (Radnor, PA, USA). BTK degradation was evaluated by quantification of luminescent signal using Nano-Glo® HiBiT Lytic Assay kit. Test compounds were added to the 384-well plate from a top concentration of 10 μM with 11 points, half log titration in duplicates. GM01501.3 cells were added into 384-well plates at a cell density of 10,000 cells per well in a total volume of 30 μl. The plates were kept at 37° C. with 5% CO2 for 6 hours. Negative control wells included cells treated with DMSO only and positive control wells included only growing media, without Nano-Glo® HiBiT Lytic reagent. After a 6-hour incubation, Nano-Glo® HiBiT Lytic Assay reagent was added to the cells following manufacturer indications. Luminescence was acquired on EnVision™ Multilabel Reader (PerkinElmer, Santa Clara, CA, USA). […] “++++” represents a DC50 value of less than 100 nM. “+++” represents a DC50 value of 100 nM-500 nM. “++” represents a DC50 value of 500 nM-1000 nM. “+” represents a DC50 value of greater than 1000 nM.

T1 sequence (Q06187 whole entry, the tested form may be a part): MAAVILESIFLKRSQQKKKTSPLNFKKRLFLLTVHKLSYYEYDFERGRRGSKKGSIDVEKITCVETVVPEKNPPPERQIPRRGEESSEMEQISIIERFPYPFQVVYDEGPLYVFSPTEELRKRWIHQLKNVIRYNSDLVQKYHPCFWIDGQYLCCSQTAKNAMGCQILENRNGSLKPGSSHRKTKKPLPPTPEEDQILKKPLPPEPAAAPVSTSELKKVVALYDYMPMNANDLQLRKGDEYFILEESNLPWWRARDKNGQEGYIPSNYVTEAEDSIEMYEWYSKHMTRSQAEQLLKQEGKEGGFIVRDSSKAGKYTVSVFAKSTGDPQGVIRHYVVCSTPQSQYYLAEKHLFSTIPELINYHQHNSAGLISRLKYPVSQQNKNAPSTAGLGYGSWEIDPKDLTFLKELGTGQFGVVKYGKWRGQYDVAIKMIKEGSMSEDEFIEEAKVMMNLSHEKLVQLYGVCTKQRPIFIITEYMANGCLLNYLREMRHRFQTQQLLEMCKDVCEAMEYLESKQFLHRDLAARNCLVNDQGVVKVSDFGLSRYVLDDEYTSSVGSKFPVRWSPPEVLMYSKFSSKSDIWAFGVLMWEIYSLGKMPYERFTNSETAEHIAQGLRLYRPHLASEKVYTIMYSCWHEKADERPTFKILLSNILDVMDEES

Row | DC50 | SMILES
1 | 100 to 500 nM | CC1c2cc(OC3CCC(=O)NC3=O)ccc2CCN1Cc1ccc(-c2cc3c(-c4ccc(CNC(=O)c5noc(C(C)(C)C)n5)c(F)c4)ncnn3c2)nc1 (stereo not shown) [Example 232, 5-(tert-butyl)-N-(4-(6-(5-((7-((2,6-dioxopiperidin-3-yl)oxy)-1-methyl-3,4-dihydroisoquinolin-2(1H)-yl)methyl)pyridin-2-yl)pyrrolo[2,1-f][1,2,4]triazin-4-yl)-2-fluorobenzyl)-1,2,4-oxadiazole-3-carboxamide]
2 | < 100 nM | Cc1cc(-c2ncnn3cc(CC[C@@H](F)CN4CCC(c5ccc(C6CCC(=O)NC6=O)cc5)CC4)cc23)ccc1CNC(=O)c1noc(C(C)(C)C)n1 (single isomer, unassigned) [Example 286]
3 | < 100 nM | Cn1nc(N2CCC(=O)NC2=O)c2ccc(C3CCN(CCOc4ccc(-c5cc6c(-c7ccc(CNC(=O)c8noc(C(C)(C)C)n8)c(F)c7)ncnn6c5)cc4)CC3)cc21 [Example 109]
4 | < 100 nM | Cc1cc(-c2ncnn3cc(-c4ccc(CN5CCC(c6ccc(NC7CCC(=O)NC7=O)cc6)CC5)cc4)cc23)ccc1CNC(=O)c1ccc(F)cc1 (stereo not shown) [Example 64, N-[[4-[6-[4-[[4-[4-[(2,6-dioxo-3-piperidyl)amino]phenyl]-1-piperidyl]methyl]phenyl]pyrrolo[2,1-f][1,2,4]triazin-4-yl]-2-methyl-phenyl]methyl]-4-fluoro-benzamide]
5 | < 100 nM | COc1ccc(C(=O)NCc2ccc(-c3ncnn4cc(-c5ccc(CN6CCC(c7ccc(NC8CCC(=O)NC8=O)cc7)CC6)cc5)cc34)cc2C)nc1 (stereo not shown) [Example 93, N-[[4-[6-[4-[[4-[4-[(2,6-dioxo-3-piperidyl)amino]phenyl]-1-piperidyl]methyl]phenyl]pyrrolo[2,1-f][1,2,4]triazin-4-yl]-2-methyl-phenyl]methyl]-5-methoxy-pyridine-2-carboxamide]
6 | < 100 nM | Cc1cc(-c2ncnn3cc(N4CCN(C(=O)[C@@H]5CCC[C@H](NC(=O)c6ccc(OC7CCC(=O)NC7=O)cc6)C5)CC4)cc23)ccc1CNC(=O)c1noc(C(C)(C)C)n1 (stereo partly drawn) [Example 188, 5-(tert-butyl)-N-(4-(6-(4-((1R,3S)-3-(4-((2,6-dioxopiperidin-3-yl)oxy)benzamido)cyclohexane-1-carbonyl)piperazin-1-yl)pyrrolo[2,1-f][1,2,4]triazin-4-yl)-2-methylbenzyl)-1,2,4-oxadiazole-3-carboxamide]
7 | < 100 nM | CC(C)(C)c1nc(C(=O)NCc2ccc(-c3ncnn4cc(CCCCN5CCC(c6ccc(C7(C)CCC(=O)NC7=O)cc6)CC5)cc34)cc2F)no1 (single isomer, unassigned) [Example 141, 5-tert-butyl-N-[[2-fluoro-4-[6-[4-[4-[4-(3-methyl-2,6-dioxo-3-piperidyl)phenyl]-1-piperidyl]butyl]pyrrolo[2,1-f][1,2,4]triazin-4-yl]phenyl]methyl]-1,2,4-oxadiazole-3-carboxamide]
8 | < 100 nM | Cc1cc(-c2ncnn3cc(-c4cnc(Oc5ccc(CN6CCC(c7ccc(C8CCC(=O)NC8=O)cc7)CC6)cc5)nc4)cc23)ccc1CNC(=O)c1noc(C(C)(C)C)n1 (stereo not shown) [Example 206, 5-(tert-butyl)-N-(4-(6-(2-(4-((4-(4-(2,6-dioxopiperidin-3-yl)phenyl)piperidin-1-yl)methyl)phenoxy)pyrimidin-5-yl)pyrrolo[2,1-f][1,2,4]triazin-4-yl)-2-methylbenzyl)-1,2,4-oxadiazole-3-carboxamide]
9 | < 100 nM | Cc1cc(-c2ncnn3cc(-c4ccc(CN(C)CCCc5ccc(NC6CCC(=O)NC6=O)cc5)cc4)cc23)ccc1CNC(=O)c1noc(C(C)(C)C)n1 (stereo not shown) [Example 11, 5-tert-butyl-N-[[4-[6-[4-[[3-[4-[(2,6-dioxo-3-piperidyl)amino]phenyl]propyl-methyl-amino]methyl]phenyl]pyrrolo[2,1-f][1,2,4]triazin-4-yl]-2-methyl-phenyl]methyl]-1,2,4-oxadiazole-3-carboxamide]
10 | < 100 nM | CC(C)(C)c1nc(C(=O)NCc2ccc(-c3ncnn4cc(-c5ccc(CN6CCC(c7ccc(NC8CCC(=O)NC8=O)cn7)CC6)c(F)c5)cc34)cc2F)no1 (stereo not shown) [Example 222, 5-(tert-butyl)-N-(4-(6-(4-((4-(5-((2,6-dioxopiperidin-3-yl)amino)pyridin-2-yl)piperidin-1-yl)methyl)-3-fluorophenyl)pyrrolo[2,1-f][1,2,4]triazin-4-yl)-2-fluorobenzyl)-1,2,4-oxadiazole-3-carboxamide]
11 | < 100 nM | Cc1cc(-c2ncnn3cc(-c4cccc(CN5CCC(c6ccc(OC7CCC(=O)NC7=O)cc6)CC5)n4)cc23)ccc1CNC(=O)c1noc(C(C)(C)C)n1 (stereo not shown) [Example 247, 5-(tert-butyl)-N-(4-(6-(6-((4-(4-((2,6-dioxopiperidin-3-yl)oxy)phenyl)piperidin-1-yl)methyl)pyridin-2-yl)pyrrolo[2,1-f][1,2,4]triazin-4-yl)-2-methylbenzyl)-1,2,4-oxadiazole-3-carboxamide]
12 | < 100 nM | Cc1cc(-c2ncnn3cc(CCN4CCC(c5ccc(NC6CCC(=O)NC6=O)cn5)CC4)cc23)ccc1CNC(=O)c1noc(C(C)(C)C)n1 (stereo not shown) [Example 252, 5-(tert-butyl)-N-(4-(6-(2-(4-(5-((2,6-dioxopiperidin-3-yl)amino)pyridin-2-yl)piperidin-1-yl)ethyl)pyrrolo[2,1-f][1,2,4]triazin-4-yl)-2-methylbenzyl)-1,2,4-oxadiazole-3-carboxamide]
13 | < 100 nM | Cc1cc(-c2ncnn3cc(-c4ccc(CN5CCC(c6c(F)cc(C7CCC(=O)NC7=O)cc6F)CC5)cc4)cc23)ccc1CNC(=O)c1noc(C(C)(C)C)n1 (stereo not shown) [Example 10, 5-tert-butyl-N-[[4-[6-[4-[[4-[4-(2,6-dioxo-3-piperidyl)-2,6-difluoro-phenyl]-1-piperidyl]methyl]phenyl]pyrrolo[2,1-f][1,2,4]triazin-4-yl]-2-methyl-phenyl]methyl]-1,2,4-oxadiazole-3-carboxamide]
14 | < 100 nM | CC(C)(C)c1nc(C(=O)NCc2ccc(-c3ncnn4cc(-c5ccc(OCCN6CCC(c7ccc(C8(C)CCC(=O)NC8=O)cc7)CC6)cc5)cc34)cc2F)no1 (stereo not shown) [Example 111, 5-tert-butyl-N-[[2-fluoro-4-[6-[4-[2-[4-[4-(3-methyl-2,6-dioxo-3-piperidyl)phenyl]-1-piperidyl]ethoxy]phenyl]pyrrolo[2,1-f][1,2,4]triazin-4-yl]phenyl]methyl]-1,2,4-oxadiazole-3-carboxamide]
15 | 100 to 500 nM | Cc1cc(-c2ncnn3cc(-c4cccc5c(CN6CCC(c7ccc(C8CCC(=O)NC8=O)cc7)CC6)n(C)nc45)cc23)ccc1CNC(=O)c1noc(C(C)(C)C)n1 (stereo not shown) [Example 212, 5-(tert-butyl)-N-(4-(6-(3-((4-(4-(2,6-dioxopiperidin-3-yl)phenyl)piperidin-1-yl)methyl)-2-methyl-2H-indazol-7-yl)pyrrolo[2,1-f][1,2,4]triazin-4-yl)-2-methylbenzyl)-1,2,4-oxadiazole-3-carboxamide]
16 | < 100 nM | Cc1cc(-c2ncnn3cc(-c4ccc(CN5CCN(c6ccc(NC7CCC(=O)NC7=O)cc6)CC5)cc4)cc23)ccc1CNC(=O)c1noc(C(C)(C)C)n1 (stereo not shown) [Example 29, 5-tert-butyl-N-[[4-[6-[4-[[4-[4-[(2,6-dioxo-3-piperidyl)amino]phenyl]piperazin-1-yl]methyl]phenyl]pyrrolo[2,1-f][1,2,4]triazin-4-yl]-2-methyl-phenyl]methyl]-1,2,4-oxadiazole-3-carboxamide]
17 | < 100 nM | Cc1cc(-c2ncnn3cc(-c4csc(CN5CCC(c6ccc(C7CCC(=O)NC7=O)cc6)CC5)n4)cc23)ccc1CNC(=O)c1noc(C(C)(C)C)n1 (stereo not shown) [Example 208, 5-(tert-butyl)-N-(4-(6-(2-((4-(4-(2,6-dioxopiperidin-3-yl)phenyl)piperidin-1-yl)methyl)thiazol-4-4-yl)pyrrolo[2,1-f][1,2,4]triazin-4-yl)-2-methylbenzyl)-1,2,4-oxadiazole-3-carboxamide]
18 | < 100 nM | Cc1cc(-c2ncnn3cc(-c4ccc(OCCN5CCC(c6ccc(CN7CCC(=O)NC7=O)cc6)CC5)cc4)cc23)ccc1CNC(=O)c1noc(C(C)(C)C)n1 [Example 106, 5-tert-butyl-N-[[4-[6-[4-[2-[4-[4-[(2,4-dioxohexahydropyrimidin-1-yl)methyl]phenyl]-1-piperidyl]ethoxy]phenyl]pyrrolo[2,1-f][1,2,4]triazin-4-yl]-2-methyl-phenyl]methyl]-1,2,4-oxadiazole-3-carboxamide]
19 | < 100 nM | CC(C)(C)c1nc(C(=O)NCc2cc(F)c(-c3ncnn4cc(-c5ccc(CN6CCC(c7ccc(NC8CCC(=O)NC8=O)cc7)CC6)cc5)cc34)cc2Cl)no1 (stereo not shown) [Example 49, 5-tert-butyl-N-[[2-chloro-4-[6-[4-[[4-[4-[(2,6-dioxo-3-piperidyl)amino]phenyl]-1-piperidyl]methyl]phenyl]pyrrolo[2,1-f][1,2,4]triazin-4-yl]-5-fluoro-phenyl]methyl]-1,2,4-oxadiazole-3-carboxamide]
